Values quoted from earlier work, collected in US20240066044A1, “METHODS AND COMPOSITIONS FOR INCREASING NAD+ METABOLOME IN HEALTHY MIDDLE-AGED POPULATION” (Bioenergy Life Science, Inc., priority 2021, published 2024).
Read-outs that look alike come from different tables or passages of the source.

## NC(=O)c1cccnc1 [NAM, nicotinamide]
Canada
  daily tolerable upper dietary intake: 500 mg
EU
  daily tolerable upper dietary intake: 900 mg
Japan
  daily tolerable upper dietary intake: 5 mg/kg
NAD+
  doses at which NAM is ineffective for boosting NAD+: below 90 mg per day
